Data as given in patent publication US20180201647A1, “Peptoid” (The University of Durham, priority 2015, published 2018).
Where two headings read alike, the source gives them in different places. Where a SMILES comes first, the peptide text is derived from it. [ ]: non-standard residue; d: D form. Nspe = C[C@H](NCC(=O)O)c1ccccc1; NhArg = N=C(N)NCCCCNCC(=O)O; Nlys = NCCCCNCC(=O)O

Assays:
Format in all cases: cell-based
[1] = test system: erythrocytic stages of P. falciparum; settings: for active against P. falciparum: statement in words; for IC50: strain (NF54 or K1) not given
Procedure: In vitro activity against erythrocytic stages of P. falciparum was determined using a 3H-hypoxanthine incorporation assay using the drug sensitive NF54 strain (Schipol airport) or the chloroquine and pyrimethamine resistant K1 strain that originate from Thailand and the standard drug chloroquine (Sigma C6628). Compounds were dissolved in DMSO at 10 mg/ml and added to parasite cultures incubated in RPMI 1640 medium without hypoxanthine, supplemented with HEPES (5.94 g/l), NaHCO3 (2.1 g/1), neomycin (100 U/ml), Albumax® (5 g/l) and washed human red cells A^+ at 2.5% haematocrit (0.3% parasitaemia). Serial drug dilutions of eleven 3-fold dilution steps covering a range from 100 to 0.002 μg/ml were prepared. The 96-well plates were incubated in a humidified atmosphere at 37° C.; 4% CO2, 3% O2, 93% N2. After 48 h 50 μl of 3H-hypoxanthine (=0.5 μCi) was added to each well of the plate. The plates were incubated for a further 24 h under the same conditions. The plates were then harvested with a Betaplate™ cell harvester (Wallac, Zurich, Switzerland), and the red blood cells transferred onto a glass fibre filter then washed with distilled water. The dried filters were inserted into a plastic foil with 10 ml of scintillation fluid, and counted in a Betaplate™ liquid scintillation counter (Wallac, Zurich, Switzerland). IC50 values were calculated from sigmoidal inhibition curves by linear regression using Microsoft Excel. Chloroquine and artemisinin are used as control.

[2] = test system: L. donovani strain MHOM/ET/67/L82 axenic amastigotes; settings: for active against L. donovani: statement in words; for IC50: strain MHOM/ET/67/L82 axenic amastigotes, 70 h
Procedure: Amastigotes of L. donovani strain MHOM/ET/67/L82 were grown in axenic culture at 37° C. in SM medium^24 at pH 5.4 supplemented with 10% heat-inactivated fetal bovine serum under an atmosphere of 5% CO2 in air. One hundred microlitres of culture medium with 10^5 amastigotes from axenic culture with or without a serial drug dilution were seeded in 96-well microtitre plates. Serial drug dilutions of eleven 3-fold dilution steps covering a range from 90 to 0.002 μg/ml were prepared. After 70 h of incubation the plates were inspected under an inverted microscope to assure growth of the controls and sterile conditions. 10 μl of Alamar Blue (12.5 mg resazurin dissolved in 100 ml distilled water) were then added to each well and the plates incubated for another 2 h. Then the plates were read with a Spectramax Gemini XS microplate fluorometer (Molecular Devices Cooperation, Sunnyvale, Calif., USA) using an excitation wave length of 536 nm and an emission wave length of 588 nm. Data were analyzed using the software Softmax Pro (Molecular Devices Cooperation, Sunnyvale, Calif., USA). Decrease of fluorescence (=inhibition) was expressed as percentage of the fluorescence of control cultures and plotted against the drug concentrations. From the sigmoidal inhibition curves the IC50 values were calculated.

[3] = test system: Trypanosoma brucei rhodesiense STIB900; settings: for IC50: 70 h; for active against T. brucei rhodesiense: statement in words
Procedure: This stock was isolated in 1982 from a human patient in Tanzania and after several mouse passages cloned and adapted to axenic culture conditions. Minimum Essential Medium (50 μl) supplemented with 25 mM HEPES, 1 g/l additional glucose, 1% MEM non-essential amino acids (100×), 0.2 mM 2-mercaptoethanol, 1 mM Na-pyruvate and 15% heat inactivated horse serum was added to each well of a 96-well microtiter plate. Serial drug dilutions of eleven 3-fold dilution steps covering a range from 100 to 0.002 μg/ml were prepared. Then 4×10^3 bloodstream forms of T. b. rhodesiense STIB 900 in 50 μl was added to each well and the plate incubated at 37° C. under a 5% CO2 atmosphere for 70 h. 10 μl Alamar Blue (resazurin, 12.5 mg in 100 ml double-distilled water) was then added to each well and incubation continued for a further 2-4 h. Then the plates were read with a Spectramax Gemini XS microplate fluorometer (Molecular Devices Cooperation, Sunnyvale, Calif., USA) using an excitation wave length of 536 nm and an emission wave length of 588 nm. The IC50 values were calculated by linear regression from the sigmoidal dose inhibition curves using SoftmaxPro software (Molecular Devices Cooperation, Sunnyvale, Calif., USA). Melarsoprol (Arsobal Sanofi-Aventis, received from WHO) is used as control.

[4] = test system: Pseudomonas aeruginosa laboratory strain PAO2
Procedure: (§1) Species used in MIC assays included gram-negative Escherichia coli K12 W3110, Pseudomonas aeruginosa laboratory strain PAO2 and Serratia marcescens laboratory strain and gram-positive Staphylococcus aureus NCTC 6571 and Micrococcus luteus laboratory strain.
(§2) Bacterial cultures were prepared by streaking the bacterial strains on to agar plates with an inoculation loop and incubating overnight at 37° C. A single colony was then selected and placed in 5 mL of Iso-Sensitest broth using an inoculation loop and incubated at 37° C. with shaking overnight.
(§3) MIC values were attained according to the protocol described by J. M. Andrews et al. [J. M. Andrews, J. Antimicrob. Chemother., 2001, 48, 5-16] and were conducted in 96-well microtitre plates in triplicate. 10-50 μL of each overnight culture was inoculated into 1.2 mL of Iso-Sensitest broth and grown at 37° C. with shaking. […] The inoculum was diluted ten-fold with Iso-Sensitest broth before use (to ˜10^3 cfu/spot). Peptide solutions were initially dissolved in DMSO (5 mg mL^−1) and then diluted further with Iso-Sensitest broth to achieve a concentration range of 4 mgL^−1 to 512 mgL^−1 using 2-fold serial dilutions. Samples were vortexed between dilutions where necessary to aid dissolution. 50 μL of inoculum and 50 μL of peptide solution were added to each test well to achieve a final concentration range of 2 mgL^−1 to 256 mgL^−1. Separate dilutions of ampicillin and DMSO were made up in a similar manner to act as a positive antibacterial control and a +DMSO control, respectively. 50 μL of inoculum and 50 μL of Iso-Sensitest broth were used as a positive control and 100 μL of inoculum was used as a negative control. Positive and negatives controls were conducted multiple times in parallel per plate. […] Quantitative data were attained as A650nm values using a BioTek® Synergy™ H4 Hybrid Multi-Mode Microplate Reader.

[5] = test system: Serratia marcescens laboratory strain; settings: 16 h
Procedure: as §1, §2, §3

[6] = test system: Staphylococcus aureus NCTC 6571
Procedure: as §1, §2, §3

[7] = test system: Escherichia coli K12 W3110
Procedure: as §1, §2, §3

[8] = second figure of cell, 37° C., 16 h, Iso-Sensitest broth
[9] = second figure of cell, 37° C., Iso-Sensitest broth

Compound | active against P. falciparum [1] | IC50 [1] [µM] | active against L. donovani [2] | IC50 [2] [µM] | IC50 [3] [µM] | active against T. brucei rhodesiense [3] | MIC P. aeruginosa ([4]; laboratory strain PAO2, 16 h) [µM] | MIC P. aeruginosa [4, 8] [mgL^−1] | MIC S. marcescens ([5]; laboratory strain) [µM] | MIC S. marcescens [5, 9] [mgL^−1] | MIC S. aureus ([6]; NCTC 6571, 16 h) [µM] | MIC S. aureus [6, 8] [mgL^−1] | MIC E. coli ([7]; K12, 16 h) [µM] | MIC E. coli [7, 8] [mgL^−1]
C[C@@H](c1ccccc1)N(CC(N)=O)C(=O)CN(C(=O)CN(CCCCN)C(=O)CN(C(=O)CN(C(=O)CN(CCCCNC(=N)N)C(=O)CN(C(=O)CN(C(=O)CN(CCCCN)C(=O)CN(C(=O)CN(C(=O)CNCCCCNC(=N)N)[C@@H](C)c1ccccc1)[C@@H](C)c1ccccc1)[C@@H](C)c1ccccc1)[C@@H](C)c1ccccc1)[C@@H](C)c1ccccc1)[C@@H](C)c1ccccc1)[C@@H](C)c1ccccc1 [Peptoid 4, [(NhArg-Nspe-Nspe)(NLys-Nspe-Nspe)]2] (H-[NhArg][Nspe][Nspe][Nlys][Nspe][Nspe][NhArg][Nspe][Nspe][Nlys][Nspe][Nspe]-NH2; N-terminus assumed) | active | 2.72 | active | 19.9 | 16.7 | active | 67 | 128 | > 134 | > 256 | 17 | 32 | 17 | 32
C[C@@H](c1ccccc1)N(CC(N)=O)C(=O)CN(C(=O)CN(CCCCNC(=N)N)C(=O)CN(C(=O)CN(C(=O)CN(CCCCNC(=N)N)C(=O)CN(C(=O)CN(C(=O)CN(CCCCN)C(=O)CN(C(=O)CN(C(=O)CNCCCCN)[C@@H](C)c1ccccc1)[C@@H](C)c1ccccc1)[C@@H](C)c1ccccc1)[C@@H](C)c1ccccc1)[C@@H](C)c1ccccc1)[C@@H](C)c1ccccc1)[C@@H](C)c1ccccc1 [Peptoid 1, (NLys-Nspe-Nspe)2(NhArg-Nspe-Nspe)2] (H-[Nlys][Nspe][Nspe][Nlys][Nspe][Nspe][NhArg][Nspe][Nspe][NhArg][Nspe][Nspe]-NH2; N-terminus assumed) | active | 1.5 | active | 11.1 | 6.73 | active | 34 | 64 | 134 | 256 | 17 | 32 | 17 | 32
